Assay results from patent US12698534B2, “Systems and methods for characterizing and treating disease” (Arizona Board of Regents on Behalf of the University of …, priority 2019, dated 2026).

Legend:
[1] = tested on: L1-ORF1p; test: L1-ORF1p expression by immunoblotting in lung cells treated with NCL antagonists; format: cell-based, human
Experimental: Cell lines were purchased from the American Type Culture Collection (ATCC). Cells were grown in a humidified environment at 37° C. with 5% CO2. Cell lines were confirmed to be free of mycoplasma contamination (MycoAlert; Lonza). NSCLC cell lines (NCI-H460, NCI-H520, NCI-H1299, and A549) were grown in RPMI medium supplemented with fetal bovine serum at a concentration of 10%, […] penicillin and […] streptomycin (Life Technologies). The human bronchial epithelial cell lines BEAS-2B and BZR were grown in LHC-9 medium (Thermo Fisher Scientific). Verification of all cell line identities was performed by short tandem repeat (STR) sequencing using reference databases from ATCC (Genetics Core, University of Arizona, AZ). […] All protein concentrations were determined using the bicinchoninic acid assay (Thermo Fisher Scientific).
Total cell lysates were resolved by SDS-polyacrylamide gel electrophoresis and electrotransferred onto polyvinylidene fluoride membranes (Millipore) in Tris-glycine buffer containing 20% methanol. Proteins were detected by immunoblotting. […]

[2] = tested on: LINE-1; test: LINE-1 mRNA and ORF1p in extracellular vesicles of BaP-stimulated H460 cells; format: cell-based, human; conditions: 48 h, various concentrations
Experimental: EV isolation: Media were centrifuged at 500×g for 5 min to remove cells and concentrated using a 100 kDa MWCO Amicon filter. Samples were then centrifuged at 25,000×g for 30 min to pellet apoptotic vesicles and cellular debris followed by ultracentrifugation at 100,000×g for 2 h. The EV pellet was washed in PBS and either re-centrifuged at 100,000×g or loaded onto an iodixanol gradient.
Total RNA was harvested (Zymo) and subjected to post-elution DNAse digestion. A cDNA was created using oligo d (T) primers. Gene expression analysis was performed via qPCR using probe-based detection. Expression was expressed as a fold change from the EV-free medium (EFM).

[3] = tested on: Lung tissues in ORFeus^LSL mice; test: Lung histology and general toxicity after intratracheal instillation; format: in vivo
Experimental: A BioLite Intubation System (Braintree Scientific Inc, USA) was used for intratracheal instillation of ORFeus^LSL mice (29-38 g) anesthetized with ketamine and xylazine (100 mg/kg and 10 mg/kg, respectively). All mice were genotyped to confirm genetic identity. Control mice were given one dose of 5×10^10 PFU adenoCRE recombinase dissolved in H2O or DMSO. The optimal adenovirus dose was defined empirically as a dose that only modestly activated the transgene. […] Mice were sacrificed by cervical dislocation after euthanasia with CO2 one-week after treatment. Tissues were collected and stored at 4° C. in RNA later (Thermo Fisher Scientific, CA).
Lung sections were snap-frozen in OCT. Tissues were fixed with cold acetone and stained with hematoxylin and eosin. Samples were evaluated blindly by two pathologists.

[4] = tested on: ORFeus^LSL transgene (human LINE-1); test: ORFeus LINE-1 mRNA by RT-qPCR in mouse tissues; format: in vivo, mice
Experimental: A BioLite Intubation System (Braintree Scientific Inc, USA) was used for intratracheal instillation of ORFeus^LSL mice (29-38 g) anesthetized with ketamine and xylazine (100 mg/kg and 10 mg/kg, respectively). All mice were genotyped to confirm genetic identity. Control mice were given one dose of 5×10^10 PFU adenoCRE recombinase dissolved in H2O or DMSO. […] Mice were sacrificed by cervical dislocation after euthanasia with CO2 one-week after treatment. Tissues were collected and stored at 4° C. in RNA later (Thermo Fisher Scientific, CA).
RNA was extracted using the RNeasy Plus Mini Kit (Qiagen, MD). An aliquot of 250 ng RNA was reverse transcribed into first-strand cDNA using SuperScript® III (Invitrogen, CA). RT-qPCR was carried out for LINE-1 and nine genes within its oncogenic regulatory network. […] GAPDH was used as a control. Each reaction included 4.0 μL of cDNA, 0.5 μL of gene-specific primer pairs, and 5.0 μL SyberGreen dye and ddH2O to a final volume of 20 μL. Amplifications were completed using StepOnePlus™ RT-qPCR System and fold changes calculated using 2^−ΔΔct.

[5] = tested on: H460 large cell lung cancer cells; test: Exosome quantity and size by Nanosight NTA after BaP exposure; format: cell-based, Human; parameters: number of exosomes released per cell: dose or concentration left out as unconfirmed
From the text: (§1) Human 460 large cell lung carcinoma cells were authenticated by the UA tissue culture core facility and then cultured in RPMI media (Gibco) supplemented with 10% exosome-free FBS. One day before exposure, cells were counted, seeded, and allowed to attach overnight. Prior to each exposure, medium was removed and cells were washed with PBS to remove cellular debris and extracellular vesicles. After exposure, culture medium was harvested for exosome collection, cells were detached with trypsin-EDTA (Gibco), counted via hemocytometer, and cell viability was assessed using trypan blue exclusion.
Cell media was centrifuged at 500×g for 5 minutes to remove cells and large debris and then stored at −80° C. To isolate exosomes, cell medium was centrifuged at 25,000×g for 1.5 hours to remove apoptotic bodies and other large extracellular vesicles. To precipitate exosomes, polyethylene glycol (PEG) MW 6,000 was added to the supernatant to a final concentration of 10% (w/v), and centrifuged again at 15,000×g for 30 minutes. Each exosome pellet was resuspended in 2 mL PBS, which was then subdivided into fractions for Nanosight Nanoparticle Tracking Analysis (NTA), nucleic acid extraction, and protein extraction. Nucleic acids and proteins present outside of exosomes were enzymatically digested to prevent confounding of exosome cargo analysis. Exosome fractions designated for nucleic acid analysis were treated with DNAseI for 30 minutes at 37° C. and RNAseA for 5 minutes at RT and then supplemented with RNA Secure (Invitrogen) prior to lysis. Exosome fractions designated for protein analysis were treated with proteinaseK for 30 minutes at 37° C. Following enzymatic digestion, exosomes were pelleted a final time by addition of PEG 6,000 to 10%, and centrifugation at 15,000×g for 15 minutes. To assess exosome size and quantity, Nanosight NTA was performed. Each sample was read five times and the sample grand mean and standard error for each nanoparticle size bin were reported. Nanosight experiments were performed in technical duplicate. […]

[6] = tested on: LINE-1 mRNA; test: LINE-1 mRNA and RNA in cells and exosomes by RT-qPCR; format: cell-based, Human; conditions: H460 exosomes
From the text: as §1
(§2) Nucleic acids were extracted from cell and exosome pellets using the Quick DNA-RNA Miniprep Plus. RNA was subjected to an additional DNAseI digestion on-column (RNA from cells) or prior to reverse transcription (RNA from exosomes; Turbo DNA-free; Invitrogen). Following isolation DNA and RNA quantity and integrity were assessed using the Cytation X system. LINE-1 mRNA was detected in equal volumes of exosome RNA using OneStep RT-qPCR (NEB). To assess cellular LINE-1 mRNA levels, LINE-1 mRNA was normalized to B-Actin mRNA and expressed as a fold change from control using the Pfaffl technique. […] Briefly, the fluorescence units from the reverse transcription control (RTC; no reverse transcriptase enzyme) for each sample was subtracted from the complete sample amplification and the remaining fluorescence units were divided by cell number. The resulting values approximate the amount of LINE-1 or BActin mRNA present in exosomes that is also normalized by cell number. LINE-1 DNA copies were quantified using absolute qPCR quantification. Briefly, known copy numbers of plasmids bearing the LINE-1 sequence were used to create a standard curve, which could then be used to calculated copy number from samples. These copy numbers were then divided by cell number to yield the number of LINE-1 DNA copies per cell (cellular DNA) and the number of exosome LINE-1 DNA copies per cell (exosome DNA).

[7] = tested on: LINE-1 DNA; test: LINE-1 DNA copies in cells and exosomes by absolute qPCR; format: cell-based, Human; conditions: for exosome LINE-1 DNA copies released per cell, mean (±SE): H460 exosomes
From the text: as §1, §2

[8] = tested on: Human 460 large cell lung carcinoma cells; test: BaP exposure of H460 cells: cell count and trypan blue viability; format: cell-based; conditions: for cell number at conclusion of exposure, mean (±SEM): 48 hour
From the text: as §1

[9] = target: the molecule itself; test: Western blot of EV iodixanol gradient fractions (self-association)

5′-GGTGGTGGTGGTTGTGGTGGTGGTGG-3′ (SEQ ID NO:2) (DNA, backbone not given here) [AS1411, oligodeoxynucleotide DNA aptamer targeting nucleolin]
L1-ORF1p protein expression ([1]; NCI-H520 cells, high concentrations (20 μM)): without effect
L1-ORF1p protein expression ([1]; any of the cell lines (data not shown)): without effect

c1ccc2c(c1)cc1ccc3cccc4ccc2c1c34 [BaP, benzo[a]pyrene]
EV LINE-1 levels versus cellular LINE-1 levels [2]: mirrored within EVs
toxic effects in treated mice ([3]; ORFeus^LSL mice, at any time): No dramatic toxic effects
lung histology: leukocytic infiltration ([3]; mouse, in vivo): significant leukocytic infiltration into the lungs
lung histology: vessel congestion and mononuclear cell infiltration ([3]; mouse, in vivo): pulmonary vessel congestion with focal-to-diffuse mononuclear cell infiltration into parenchyma
ORFeus LINE-1 mRNA expression in lung ([4]; male and female lungs, one week after treatment): significantly increased expression of the transgene
activation of the LINE-1 transgene in other tissues ([4]; stomach, heart, kidney, liver, intestine): only stomach, but not heart, kidney, liver or intestine, showed activation of the LINE-1 transgene
size range in which more exosomes were produced ([5]; 0.25 μM): 64.5 to 71.5 nM
size range in which more exosomes were produced ([5]; 1 μM): 61.5 to 77.5 nM
number of exosomes released per cell ([5]; particles 30-150 nm normalized to cell number): increased
exosome LINE-1 mRNA, Pfaffl method normalized to B-Actin mRNA [6]: did not observe significant increases
LINE-1 mRNA export in exosomes per cell ([6]; 0.25 μM): approximately two-fold
LINE-1 mRNA export in exosomes per cell ([6]; 0.5 μM): approximately two-fold
LINE-1 mRNA export in exosomes per cell ([6]; 1 μM): decreased export
quantity of total exosome RNA ([6]; 1 μM): 83.26 ± 16.94 ng
exosome B-Actin mRNA released per cell ([6]; fluorescence units adjusted by cell number): dose-dependent increases
cellular LINE-1 DNA copies per cell ([7]; H460 cells): did not significantly change
exosome LINE-1 DNA copies released per cell, mean (±SE) ([7]; 0.25 μM): 61.04±31.3 copies
exosome LINE-1 DNA copies released per cell, mean (±SE) ([7]; 0.5 μM): 62.43±28.98 copies
exosome LINE-1 DNA copies released per cell, mean (±SE) ([7]; 1 μM): 85.96±51.21 copies
cell proliferation ([8]; 48 hour exposure): reduce cell proliferation in a dose-dependent manner
cell number at conclusion of exposure, mean (±SEM) ([8]; 0.5 μM): 14.0±2.3 million cells
cell number at conclusion of exposure, mean (±SEM) ([8]; 1 μM): 11.1±1.9 million cells

B1: human LINE-1 ORF1 protein (L1-ORF1p) (other, UniProt Q9UN81 1-338, looked up)
chain: MGKKQNRKTGNSKTQSASPPPKERSSSPATEQSWMENDFDELREEGFRRSNYSELREDIQTKGKEVENFEKNLEECITRITNTEKCLKELMELKTKARELREECRSLRSRCDQLEERVSAMEDEMNEMKREGKFREKRIKRNEQSLQEIWDYVKRPNLRLIGVPESDVENGTKLENTLQDIIQENFPNLARQANVQIQEIQRTPQRYSSRRATPRHIIVRFTKVEMKEKMLRAAREKGRVTLKGKPIRLTADLSAETLQARREWGPIFNILKEKNFQPRISYPAKLSFISEGEIKYFIDKQMLRDFVTTRPALKELLKEALNMERNNRYQPLQNHAKM
notes: Endogenous protein detected on Western blots of human cell lysates and EV extracts; Seen as a monomer, a dimer and higher multimers
binding result [9]: binds
